Experimental data taken from PubChem BioAssay AID1963845 (Molecular Pharmacology Branch, DTP, NCI, 2024).

Test system: 429239-143-T-J1-PDC complex spheroid viability
Experiment: Anticancer human tumor 429239-143-T-J1-PDC patient-derived small cell lung carcinoma cell line growth inhibition [POLQ]
Details: for IC50: curve of first compound; for viability, T/C: stronger effect = lower value
In short: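 PDC + HUVEC + MSC complex spheroids; POLQ inhibitors ± partner drugs; top conc. at/near clinical Cmax, else 10 microM (SN-38 1 microM), half-log dilutions; 37 degrees C, 5% CO2.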

[1] = second compound 0.0316 µM, first compound 0.0316 µM
[2] = second compound 0.0316 µM, first compound 0.1 µM
[3] = second compound 0.0316 µM, first compound 0.316 µM
[4] = second compound 0.0316 µM, first compound 1 µM
[5] = second compound 0.0316 µM, first compound 3.16 µM
[6] = second compound 0.0316 µM, first compound 10 µM
[7] = second compound 0.1 µM, first compound 0.0316 µM
[8] = second compound 0.1 µM, first compound 0.1 µM
[9] = second compound 0.1 µM, first compound 0.316 µM
[10] = second compound 0.1 µM, first compound 1 µM
[11] = second compound 0.1 µM, first compound 3.16 µM
[12] = second compound 0.1 µM, first compound 10 µM
[13] = second compound 0.316 µM, first compound 0.0316 µM
[14] = second compound 0.316 µM, first compound 0.1 µM
[15] = second compound 0.316 µM, first compound 0.316 µM
[16] = second compound 0.316 µM, first compound 1 µM
[17] = second compound 0.316 µM, first compound 3.16 µM
[18] = second compound 0.316 µM, first compound 10 µM
[19] = second compound 1 µM, first compound 0.0316 µM
[20] = second compound 1 µM, first compound 0.1 µM
[21] = second compound 1 µM, first compound 0.316 µM
[22] = second compound 1 µM, first compound 1 µM
[23] = second compound 1 µM, first compound 3.16 µM
[24] = second compound 1 µM, first compound 10 µM
[25] = second compound 3.16 µM, first compound 0.0316 µM
[26] = second compound 3.16 µM, first compound 0.1 µM
[27] = second compound 3.16 µM, first compound 0.316 µM
[28] = second compound 3.16 µM, first compound 1 µM
[29] = second compound 3.16 µM, first compound 3.16 µM
[30] = second compound 3.16 µM, first compound 10 µM
[31] = second compound 10 µM, first compound 0.0316 µM
[32] = second compound 10 µM, first compound 0.1 µM
[33] = second compound 10 µM, first compound 0.316 µM
[34] = second compound 10 µM, first compound 1 µM
[35] = second compound 10 µM, first compound 3.16 µM
[36] = second compound 10 µM, first compound 10 µM
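Also: luminescence signal used as surrogate measure of viable cells; spheroids exposed to compounds for seven days before readout.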
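For viability, T/C in this document: 100% = DMSO vehicle control viability as luminescence relative to vehicle.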

With `O=C(Nc1ccc(O)c(NS(=O)(=O)c2ccc(F)cc2)c1)c1ccc(-c2ccccc2)cc1` + Nc1ccc(C#CCN(C(=O)Cc2ncc(C(F)(F)F)cc2C(F)(F)F)c2ccc(F)cc2)nn1 the IC50 (second compound 0.0316 µM) was > 10 µM, the IC50 (second compound 0.1 µM) was > 10 µM and the IC50 (second compound 0.316 µM) was > 10 µM. For the same molecule, the IC50 (second compound 1 µM) was > 10 µM, the IC50 (second compound 3.16 µM) was > 10 µM and the IC50 (second compound 10 µM) was > 10 µM. It also gave a viability, T/C [1] of 102%, a viability, T/C [2] of 106% and a viability, T/C [3] of 89.5%. The viability, T/C [4] was 105%, the viability, T/C [5] was 106% and the viability, T/C [6] was 110%. It also gave a viability, T/C [7] of 105%, a viability, T/C [8] of 109% and a viability, T/C [9] of 112%. For the same molecule, the viability, T/C [10] was 106%, the viability, T/C [11] was 109% and the viability, T/C [12] was 99%. The viability, T/C [13] was 111%, the viability, T/C [14] was 103% and the viability, T/C [15] was 104%. The viability, T/C [16] was 108%, the viability, T/C [17] was 116% and the viability, T/C [18] was 98.2%. For the same molecule, the viability, T/C [19] was 115%, the viability, T/C [20] was 109% and the viability, T/C [21] was 95.8%. It also gave a viability, T/C [22] of 106%, a viability, T/C [23] of 113% and a viability, T/C [24] of 109%. It also gave a viability, T/C [25] of 107%, a viability, T/C [26] of 103% and a viability, T/C [27] of 103%. For the same molecule, the viability, T/C [28] was 101%, the viability, T/C [29] was 97.1% and the viability, T/C [30] was 106%. The viability, T/C [31] was 102%, the viability, T/C [32] was 96.6% and the viability, T/C [33] was 103%. The viability, T/C [34] was 93.7%, the viability, T/C [35] was 95.1% and the viability, T/C [36] was 96.3%.

In the case of `CCCS(=O)(=O)Nc1ccc(F)c(C(=O)c2c[nH]c3ncc(-c4ccc(Cl)cc4)cc23)c1F` + COC1C(OC(N)=O)C(O)C(Oc2ccc3c(O)c(NC(=O)c4ccc(O)c(CC=C(C)C)c4)c(=O)oc3c2C)OC1(C)C, the IC50 (second compound 0.0316 µM) is reported as > 10 µM, the IC50 (second compound 0.1 µM) is reported as > 10 µM and the IC50 (second compound 0.316 µM) is reported as 9.77 µM. The IC50 (second compound 1 µM) was 8.99 µM, the IC50 (second compound 3.16 µM) was > 10 µM and the IC50 (second compound 10 µM) was 8.86 µM. The viability, T/C [1] was 105%, the viability, T/C [2] was 90.4% and the viability, T/C [3] was 101%. For the same molecule, the viability, T/C [4] was 102%, the viability, T/C [5] was 98.6% and the viability, T/C [6] was 50.5%. The viability, T/C [7] was 95.7%, the viability, T/C [8] was 97.4% and the viability, T/C [9] was 110%. For the same molecule, the viability, T/C [10] was 102%, the viability, T/C [11] was 92.4% and the viability, T/C [12] was 52.5%. For the same molecule, the viability, T/C [13] was 98.8%, the viability, T/C [14] was 96.3% and the viability, T/C [15] was 106%. It also gave a viability, T/C [16] of 87.6%, a viability, T/C [17] of 109% and a viability, T/C [18] of 48.9%. For the same molecule, the viability, T/C [19] was 104%, the viability, T/C [20] was 100% and the viability, T/C [21] was 94.5%. The viability, T/C [22] was 98.8%, the viability, T/C [23] was 86.2% and the viability, T/C [24] was 46%. The viability, T/C [25] was 109%, the viability, T/C [26] was 96.3% and the viability, T/C [27] was 106%. It also gave a viability, T/C [28] of 83.1%, a viability, T/C [29] of 98.5% and a viability, T/C [30] of 53.1%. For the same molecule, the viability, T/C [31] was 92.8%, the viability, T/C [32] was 101% and the viability, T/C [33] was 104%. For the same molecule, the viability, T/C [34] was 84.7%, the viability, T/C [35] was 119% and the viability, T/C [36] was 44.1%.

For `O=C(c1cc(Cc2n[nH]c(=O)c3ccccc23)ccc1F)N1CCN(C(=O)C2CC2)CC1` + Cc1cccc(N(C)C(=O)C2C(O)CCN2c2nc(C)cc(C(F)(F)F)c2C#N)c1, the IC50 (second compound 0.0316 µM) was 1.57 µM, the IC50 (second compound 0.1 µM) was 1.46 µM and the IC50 (second compound 0.316 µM) was 1.65 µM. For the same molecule, the IC50 (second compound 1 µM) was 1.75 µM, the IC50 (second compound 3.16 µM) was 1.88 µM and the IC50 (second compound 10 µM) was 1.5 µM. It also gave a viability, T/C [1] of 104%, a viability, T/C [2] of 84.5% and a viability, T/C [3] of 82.9%. For the same molecule, the viability, T/C [4] was 65.4%, the viability, T/C [5] was 28.9% and the viability, T/C [6] was 19.9%. The viability, T/C [7] was 85.1%, the viability, T/C [8] was 81.3% and the viability, T/C [9] was 78%. The viability, T/C [10] was 55.8%, the viability, T/C [11] was 35.3% and the viability, T/C [12] was 17.9%. The viability, T/C [13] was 94.2%, the viability, T/C [14] was 82.5% and the viability, T/C [15] was 81.9%. The viability, T/C [16] was 61.3%, the viability, T/C [17] was 35% and the viability, T/C [18] was 18.7%. For the same molecule, the viability, T/C [19] was 83.5%, the viability, T/C [20] was 78.9% and the viability, T/C [21] was 80.6%. The viability, T/C [22] was 63.4%, the viability, T/C [23] was 35.5% and the viability, T/C [24] was 18.6%. For the same molecule, the viability, T/C [25] was 92.6%, the viability, T/C [26] was 78.7% and the viability, T/C [27] was 81.5%. For the same molecule, the viability, T/C [28] was 66.3%, the viability, T/C [29] was 36.5% and the viability, T/C [30] was 21%. The viability, T/C [31] was 89.5%, the viability, T/C [32] was 91.9% and the viability, T/C [33] was 70.9%. It also gave a viability, T/C [34] of 58.2%, a viability, T/C [35] of 37% and a viability, T/C [36] of 18.7%.
